Test results published in ChEMBL document CHEMBL2074500 (Drug Metab Dispos, 1999).

Key:
[1] = target: T1, Solute carrier organic anion transporter family member 1A2 (Homo sapiens, UniProt P46721); assay: TP_TRANSPORTER: inhibition of Fexofenadine uptake (Fexofenadine: 2 uM, Saquinavir: 100 uM) in Xenopus laevis oocytes; format: functional, cell-based; set-up: scale not given: the % may be the effect or the level left; conditions: oocyte
T1 sequence (P46721 whole entry): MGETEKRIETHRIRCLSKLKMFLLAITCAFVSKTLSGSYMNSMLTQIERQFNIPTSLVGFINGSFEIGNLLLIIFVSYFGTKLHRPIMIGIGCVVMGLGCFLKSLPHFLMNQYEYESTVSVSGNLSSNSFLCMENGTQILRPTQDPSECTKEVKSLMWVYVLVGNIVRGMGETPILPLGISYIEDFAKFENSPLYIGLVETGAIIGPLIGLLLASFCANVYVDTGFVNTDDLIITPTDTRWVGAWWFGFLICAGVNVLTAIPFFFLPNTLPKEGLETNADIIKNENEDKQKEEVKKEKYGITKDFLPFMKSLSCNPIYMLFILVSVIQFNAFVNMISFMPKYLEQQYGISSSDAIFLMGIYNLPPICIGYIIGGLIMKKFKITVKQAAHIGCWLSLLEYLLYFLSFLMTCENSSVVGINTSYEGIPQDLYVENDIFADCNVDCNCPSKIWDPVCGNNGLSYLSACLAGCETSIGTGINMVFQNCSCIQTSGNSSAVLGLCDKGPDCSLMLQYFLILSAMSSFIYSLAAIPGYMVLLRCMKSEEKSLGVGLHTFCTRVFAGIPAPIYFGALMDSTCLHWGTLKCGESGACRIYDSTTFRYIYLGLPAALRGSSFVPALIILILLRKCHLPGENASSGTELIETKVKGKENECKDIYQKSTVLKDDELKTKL

[2] = target: T1, Solute carrier organic anion transporter family member 1A2; assay: TP_TRANSPORTER: inhibition of Fexofenadine uptake (Fexofenadine: 2 uM, Indinavir: 100 uM) in Xenopus laevis oocytes; format: functional, cell-based; set-up: scale not given: the % may be the effect or the level left; conditions: oocyte
[3] = target: T1, Solute carrier organic anion transporter family member 1A2; assay: TP_TRANSPORTER: inhibition of Fexofenadine uptake (Fexofenadine: 2 uM, Nelfinavir: 100 uM) in Xenopus laevis oocytes; format: functional, cell-based; set-up: scale not given: the % may be the effect or the level left; conditions: oocyte
[4] = target: T1, Solute carrier organic anion transporter family member 1A2; assay: TP_TRANSPORTER: inhibition of Fexofenadine uptake (Fexofenadine: 2 uM, Verapamil: 100 uM) in Xenopus laevis oocytes; format: functional, cell-based, Oocyte; conditions: probe Fexofenadine
[5] = target: T1, Solute carrier organic anion transporter family member 1A2; assay: TP_TRANSPORTER: inhibition of Fexofenadine uptake (Fexofenadine: 2 uM, Erythromycin: 100 uM) in Xenopus laevis oocytes; format: functional, cell-based; set-up: scale not given: the % may be the effect or the level left; conditions: oocyte
[6] = target: T2, ATP-dependent translocase ABCB1 (Mus musculus, UniProt P21447); assay: TP_TRANSPORTER: increase in heart concentration in mdr1a(-/-) mouse; format: functional, organism-based; conditions: in vivo
[7] = target: T2, ATP-dependent translocase ABCB1; assay: TP_TRANSPORTER: increase in liver concentration in mdr1a(-/-) mouse; format: functional, organism-based; conditions: in vivo
[8] = target: T2, ATP-dependent translocase ABCB1; assay: TP_TRANSPORTER: increase in small intestine concentration in mdr1a(-/-) mouse; format: functional, organism-based; conditions: in vivo
[9] = target: T2, ATP-dependent translocase ABCB1; assay: TP_TRANSPORTER: increase in plasma concentration in mdr1a(-/-) mouse; format: functional, organism-based; conditions: in vivo
[10] = target: T2, ATP-dependent translocase ABCB1; assay: TP_TRANSPORTER: increase in kidney concentration in mdr1a(-/-) mouse; format: functional, organism-based; conditions: in vivo
[11] = target: T2, ATP-dependent translocase ABCB1; assay: TP_TRANSPORTER: increase in spleen concentration in mdr1a(-/-) mouse; format: functional, organism-based; conditions: in vivo
[12] = target: T1, Solute carrier organic anion transporter family member 1A2; assay: TP_TRANSPORTER: inhibition of Fexofenadine uptake (Fexofenadine: 2 uM, Ketoconazole: 100 uM) in Xenopus laevis oocytes; format: functional, cell-based; set-up: scale not given: the % may be the effect or the level left; conditions: oocyte
[13] = target: T1, Solute carrier organic anion transporter family member 1A2; assay: TP_TRANSPORTER: inhibition of Fexofenadine uptake (Fexofenadine: 2 uM, Lovastatin: 100 uM) in Xenopus laevis oocytes; format: functional, cell-based, Oocyte; conditions: probe Fexofenadine
[14] = target: T1, Solute carrier organic anion transporter family member 1A2; assay: TP_TRANSPORTER: inhibition of Fexofenadine uptake (Fexofenadine: 2 uM, Quinidine: 100 uM) in Xenopus laevis oocytes; format: functional, cell-based, Oocyte; conditions: probe Fexofenadine, read-out: Activity
[15] = target: T1, Solute carrier organic anion transporter family member 1A2; assay: TP_TRANSPORTER: inhibition of Fexofenadine uptake (Fexofenadine: 2 uM, PSC-833: 100 uM) in Xenopus laevis oocytes; format: functional, cell-based, Oocyte; conditions: probe Fexofenadine
[16] = substrate: CC(C)(C(=O)O)c1ccc(C(O)CCCN2CCC(C(O)(c3ccccc3)c3ccccc3)CC2)cc1; assay: TP_TRANSPORTER: uptake in Oatp2-expressing HeLa cells; format: functional, cell-based

T2 sequence (P21447 whole entry): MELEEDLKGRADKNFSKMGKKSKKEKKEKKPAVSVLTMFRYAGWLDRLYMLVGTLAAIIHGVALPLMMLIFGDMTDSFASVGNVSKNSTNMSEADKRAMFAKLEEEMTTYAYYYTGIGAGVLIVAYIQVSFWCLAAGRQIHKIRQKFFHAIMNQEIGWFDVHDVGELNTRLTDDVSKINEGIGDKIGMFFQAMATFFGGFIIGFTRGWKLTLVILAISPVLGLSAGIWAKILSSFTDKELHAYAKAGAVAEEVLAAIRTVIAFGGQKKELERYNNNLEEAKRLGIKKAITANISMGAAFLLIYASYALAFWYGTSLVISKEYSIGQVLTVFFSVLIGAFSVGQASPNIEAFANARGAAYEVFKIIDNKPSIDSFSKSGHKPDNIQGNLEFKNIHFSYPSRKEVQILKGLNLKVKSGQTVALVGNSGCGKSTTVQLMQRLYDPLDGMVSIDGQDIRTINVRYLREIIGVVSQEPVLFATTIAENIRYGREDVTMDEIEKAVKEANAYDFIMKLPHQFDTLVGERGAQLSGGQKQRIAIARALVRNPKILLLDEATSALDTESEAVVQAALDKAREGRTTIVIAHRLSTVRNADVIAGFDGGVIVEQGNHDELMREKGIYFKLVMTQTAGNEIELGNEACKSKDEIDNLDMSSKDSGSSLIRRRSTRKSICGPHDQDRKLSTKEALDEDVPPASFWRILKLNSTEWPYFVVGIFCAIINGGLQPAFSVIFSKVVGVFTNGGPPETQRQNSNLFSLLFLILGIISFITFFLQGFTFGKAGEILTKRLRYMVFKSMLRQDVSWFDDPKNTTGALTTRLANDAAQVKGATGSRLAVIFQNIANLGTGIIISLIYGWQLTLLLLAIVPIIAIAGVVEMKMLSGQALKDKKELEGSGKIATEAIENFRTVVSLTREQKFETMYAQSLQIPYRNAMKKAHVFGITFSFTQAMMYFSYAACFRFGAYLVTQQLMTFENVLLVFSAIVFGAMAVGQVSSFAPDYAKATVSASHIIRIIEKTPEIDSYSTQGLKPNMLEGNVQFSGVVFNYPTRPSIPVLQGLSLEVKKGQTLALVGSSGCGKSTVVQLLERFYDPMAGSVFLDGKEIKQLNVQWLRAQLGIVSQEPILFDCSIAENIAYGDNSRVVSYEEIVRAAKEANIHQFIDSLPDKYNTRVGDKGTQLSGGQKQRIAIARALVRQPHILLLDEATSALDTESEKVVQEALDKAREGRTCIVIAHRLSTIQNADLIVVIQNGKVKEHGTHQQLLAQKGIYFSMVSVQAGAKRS

CC(C)(C)NC(=O)[C@@H]1C[C@@H]2CCCC[C@@H]2CN1C[C@@H](O)[C@H](Cc1ccccc1)NC(=O)[C@H](CC(N)=O)NC(=O)c1ccc2ccccc2n1
Activity [1]: 105%

CC(C)(C)NC(=O)[C@@H]1CN(Cc2cccnc2)CCN1C[C@@H](O)C[C@@H](Cc1ccccc1)C(=O)N[C@H]1c2ccccc2C[C@H]1O.O
Activity [2]: 70%

Cc1c(O)cccc1C(=O)N[C@@H](CSc1ccccc1)[C@H](O)CN1C[C@H]2CCCC[C@H]2C[C@H]1C(=O)NC(C)(C)C
Activity [3]: 81%

COc1ccc(CCN(C)CCCC(C#N)(c2ccc(OC)c(OC)c2)C(C)C)cc1OC (stereo unspecified)
inhibition at 100 µM [4]: 100%

CC[C@H]1OC(=O)[C@H](C)[C@@H](O[C@H]2C[C@@](C)(OC)[C@@H](O)[C@H](C)O2)[C@H](C)[C@@H](O[C@@H]2O[C@H](C)C[C@H](N(C)C)[C@H]2O)[C@](C)(O)C[C@@H](C)C(=O)[C@H](C)[C@@H](O)[C@]1(C)O [ERYTHROMYCIN]
Activity [5]: 66%

CC(C)(C(=O)O)c1ccc(C(O)CCCN2CCC(C(O)(c3ccccc3)c3ccccc3)CC2)cc1 (stereo unspecified) [FEXOFENADINE]
Activity [6]: substrate [+]
Activity [7]: substrate [+]
Activity [8]: substrate [+]
Activity [9]: substrate [+]
Activity [10]: substrate [+]
Activity [11]: substrate [+]

CC(=O)N1CCN(c2ccc(OCC3COC(Cn4ccnc4)(c4ccc(Cl)cc4Cl)O3)cc2)CC1 (stereo unspecified) [KETOCONAZOLE]
Activity [12]: 107%

CC[C@H](C)C(=O)O[C@H]1C[C@@H](C)C=C2C=C[C@H](C)[C@H](CC[C@@H]3C[C@@H](O)CC(=O)O3)[C@H]21 [LOVASTATIN]
inhibition at 100 µM [13]: 95%

C=C[C@H]1C[N@@]2CC[C@H]1C[C@@H]2[C@@H](O)c1ccnc2ccc(OC)cc12 [QUINIDINE]
inhibition at 100 µM [14]: 91%

C/C=C/C[C@@H](C)C(=O)[C@H]1C(=O)N[C@@H](C(C)C)C(=O)N(C)CC(=O)N(C)[C@@H](CC(C)C)C(=O)N[C@@H](C(C)C)C(=O)N(C)[C@@H](CC(C)C)C(=O)N[C@@H](C)C(=O)N[C@H](C)C(=O)N(C)[C@@H](CC(C)C)C(=O)N(C)[C@@H](CC(C)C)C(=O)N(C)[C@@H](C(C)C)C(=O)N1C [VALSPODAR]
inhibition at 100 µM [15]: 85%

B1: Solute carrier organic anion transporter family member 1A4 (Rattus norvegicus) (protein)
chain: MGKSEKRVATHGVRCFAKIKMFLLALTCAYVSKSLSGTYMNSMLTQIERQFGIPTSIVGLINGSFEIGNLLLIIFVSYFGTKLHRPIMIGVGCAVMGLGCFLISLPHFLMGQYEYETILPTSNVSSNSFFCVENRSQTLNPTQDPSECVKEMKSLMWIYVLVGNIIRGIGETPIMPLGISYIEDFAKSENSPLYIGILETGMTIGPLIGLLLASSCANIYVDIESVNTDDLTITPTDTRWVGAWWIGFLVCAGVNILTSFPFFFFPKTLPKEGLQENVDGTENAKEKKHRKKAKEEKRGITKDFFVFMKSLSCNPIYMLFILISVLQFNAFINSFTFMPKYLEQQYGKSTAEVVFLMGLYMLPPICLGYLIGGLIMKKFKVTVKKAAHLAFWLCLSEYLLSFLSYVMTCDNFPVAGLTTSYEGVQHQLYVENKVLADCNTRCNCSTNTWDPVCGDNGLAYMSACLAGCEKSVGTGTNMVFQNCSCIQSSGNSSAVLGLCNKGPDCANKLQYFLIIAIFGCFIYSLAGIPGYMVLLRCIKSEEKSLGVGLHAFCIRILAGIPAPIYFGALIDRTCLHWGTLKCGEPGACRMYDINSFRRLYLGLPAALRGASFVPAFFILRLTRTFQFPGDIESSKTDHAEMKLTLKESECTEVLRSKVTED
Km [16]: 6 µM
